Source: patent US10632116B2, “Combinations of serotonin receptor agonists for treatment of movement disorders” (Contera Pharma A/S, priority 2010, dated 2020)

Assays:
[1] = test system: 6-OHDA unilateral lesion model rats; experiment: Forepaw adjusting steps (FAS), 6-OHDA induced akinesia; type: in vivo, rat; conditions: first study; acute L-DOPA 3 mg/kg with 15 mg/kg benserazide s.c.
Protocol: Animals: 60 Sprague-Dawley male rats (290 g-340 g, bought from SLAC Laboratory Animal Co. Ltd at an age of 8-10 weeks). Rats were housed in groups of n=2/cage. […] Animal housing and testing rooms were maintained under controlled environmental conditions and were within close proximity of each other. Animal housing rooms were on a 12-hour light-dark cycle with lights on at 6:00 AM and maintained at 70° F./21° C. (range: 68-72° F./20-22° C.) with a humidity range of 20-40%. Testing rooms were maintained at 68-72° F. with a humidity range of 20-40%.
Dopamine (DA)-denervating lesions were performed by unilateral injection of 6-OHDA in the median forebrain bundle containing the ascending nigrostraital pathway. Rats were anesthetized with pentobarbital sodium 40 mg/kg (i.p.) and positioned in a stereotactic frame. 6-OHDA was injected at the following coordinates (in mm) relative to bregma and dural surface: Tooth bar: −3.3 mm, AP: −1.8 mm, ML: −2.0 mm, DV: −8.6 mm (18 μg/6 μl 6-OHDA). […]
After recovery from surgery, rats with nearly complete (>90%) lesions were selected by means of an apomorphin-induced rotation test. […] Quantification of the rotational response was accomplished in rats by counting the turns in 30 minutes. […]
Each baseline adjusting step test consisted of two subtests of the day and the mean of the two subtests were calculated as baseline. […]

[2] = test system: unilaterally 6-OHDA-lesioned rats; experiment: L-DOPA induced AIMs and drugs screening test (6-OHDA rat model); type: in vivo
From the text: Administration of L-DOPA to unilaterally 6-OHDA-lesioned rats induces abnormal involuntary movements (AIMs). These are axial, limb and oral movements that occur only on the body side that is ipsilateral to the lesion.
Animals: 90 experimentally-naïve, male, Sprague-Dawley rats at body weight of 200 to 250 g from Shanghai SLAC Co. Ltd. arrive at the laboratory at least 1 week prior to behavioural testing. Rats are housed in groups of n=2/cage. […] Animal housing and testing rooms are maintained under controlled environmental conditions and are within close proximity of each other. Animal housing rooms are on a 12-hour light-dark cycle with lights on at 6:00 AM and maintained at 70° F./21° C. (range: 68-72° F./20-22° C.) with a humidity range of 20-40%. Testing rooms are maintained at 68-72° F. with a humidity range of 20-40%.
DA-denervating lesions are performed by unilateral injection of 6-OHDA in the ascending nigrostriatal pathway. Rats were anesthetized with pentobarbital sodium 40 mg/kg (i.p.) and positioned in a stereotactic frame. 6-OHDA is injected into the right ascending DA bundle at the following coordinates (in mm) relative to bregma and dural surface: (1) toothbar position −2.3, A=−4.4, L=1.2, V=7.8, (7.5 ug 6-OHDA), (2) toothbar position+3.4, A=−4.0, L=0.8, V=8.0 mm (6 ug 6-OHDA). The neurotoxin injections are performed at a rate of 1 ul/min, and the injection cannula is left in place for an additional 2-3 min thereafter. Two weeks after surgery rats with nearly complete (>90%) lesions are selected by means of an amphetamine-induced rotation test. The animals are placed in plastic Perspex bowls (30 cm in diameter) and the rotational behavior (360° turns) is recorded by an automated rotometer for 90 min after the i.p. injection of 2.5 mg/kg d-amphetamine sulphate. […] Animals are then allocated into two well-matched sub-groups (according to the amphetamine rotation) and receive daily treatment as described below.
L-DOPA methyl ester (Sigma-Aldrich, Germany) is given at the dose of 6 mg/kg/day, combined with 15 mg/kg/day of benserazide HCl (Sigma-Aldrich, Germany). […]

[3] = test system: Parkinson's disease; conditions: doses 10-60 mg/day; cited from earlier work
[4] = test system: Sprague-Dawley (SD) rats; experiment: Rotarod test (Example V, sedation/motor performance); type: in vivo, rat; conditions: FIG. 2; pentobarbital 15 mg/kg i.p., 30 min before test; positive control
From the text: (§1) The present study describes the evaluation of zolmitriptan and buspirone in the 6-OHDA rat model in a study using the rotarod test. Using this study, a treatment with combination of compounds according to the present invention can be evaluated for their sedative effects, and/or their effects on the motor performance compared to sedated rats and to rats which only had saline injections.
In brief, the animals (30 SD male rats (180-220 g, bred in house, originally from SLAC Laboratory Animal Co. Ltd) at 9-week of age) were trained twice a day for a 3-day period. […] Each training trial was ended if the animal fell off or grips the device and spun around for two consecutive revolutions. The time that rat stayed on the Rotarod was recorded. The staying duration recorded at last training trail was used as baseline. Rats were grouped according a randomly distribution of baseline.
For the test session on the fourth day, the rats were evaluated on the Rotarod with the same setting as above at 30 min after dosing. The rats were dosed with drugs as described below. Dosing and Rotarod measurement were conducted by two scientists separately. Pentobarbital (15 mg/kg. i.p.) was used a as a positive control.
(§2) Vehicle: Saline, i.p., 30 min before test, n=10
(§3) Positive control: Pentobarbital 15 mg/kg, i.p. 30 min before test, n=10 […]
The data were analyzed using One-Way ANOVA and the Tukey post-hoc test.

[5] = test system: naïve rats; experiment: Open field test (Example VI, locomotor activity); type: in vivo, rat; conditions: FIG. 3; pentobarbital 15 mg/kg i.p., 30 min before test; positive control
From the text: as §1, with “model.” for “model in a study using the rotarod test.”
The open field test was used to determine the effects of drug on locomotor activity. Rats were put in open-field chambers (dimensions 40 cm×40 cm) 30 minutes after dosing. After a 15 minutes habituation, locomotion were recorded and analysed by Enthovision Video Tracking Software (Noldus Information Technology, Netherlands) for 60 minutes. All locomotor activities were done during dark phase and to eliminate olfactory cues, the arena was thoroughly cleaned with 70% v/v ethanol between each test.
as §2, §3
Statistical analysis: The total locomotor activity is expressed as total moved distance (cm) and average velocity (cm/s) during 60 minutes. The data were analysed using One-Way ANOVA and the Tukey post-hoc test. The locomotor activity in six time point is expressed as moved distance (cm) and average velocity (cm/s) every 10 minutes. The data were analysed using One-Way ANOVA and the Tukey post-hoc test in each time point.

[6] = test system: L-DOPA induced dyskinesia; conditions: cited from earlier work
[7] = test system: Huntington's disease; conditions: patient suffering from Huntington's disease; cited from earlier work

SMILES: N[C@@H](Cc1ccc(O)c(O)c1)C(=O)O [L-DOPA, 3,4-dihydroxyphenylalanine]
- 6-OHDA induced akinesia (forelimb use) [1]: alleviated 6-OHDA induced akinesia

SMILES: O=C1CC2(CCCC2)CC(=O)N1CCCCN1CCN(c2ncccn2)CC1 [buspirone, 8-[4-(4-pyrimidin-2-ylpiperazin-1-yl)butyl]-8-azaspiro[4.5]decane-7,9-dione]
- L-DOPA induced AIM (Total AIMs) ([2]; Example IV, FIG. 1, buspirone alone 1 mg/kg/day i.p.): only partly reduced AIM
- L-DOPA induced AIM (Total AIMs) ([2]; Example VII, FIG. 4, buspirone alone 0.5 mg/kg i.p.): only partly reduced AIM
- effects on Parkinson's disease or dyskinesia [3]: did not have any effects

SMILES: CN(C)CCc1c[nH]c2ccc(C[C@H]3COC(=O)N3)cc12 [zolmitriptan, (S)-4-([3-[2-(dimethylamino)ethyl]-1H-indol-5-yl]methyl)-1,3-oxazolidin-2-one]
- L-DOPA induced AIM (Total AIMs) ([2]; Example IV, FIG. 1, zolmitriptan alone 10 mg/kg/day): did not reduce AIM

SMILES: CCCC(C)C1(CC)C(=O)NC(=O)NC1=O (stereo not shown) [pentobarbital]
- rotarod performance (time spent on the accelerating rod) [4]: significantly reduced time spend on the rotarod
- open field test motor performance [5]: significantly reduced motor performance

SMILES: Fc1ccc(-c2cncc(CNC[C@H]3CCc4ccccc4O3)c2)cc1 [sarizotan, 1-[(2R)-3,4-dihydro-2H-chromen-2-yl]-N-([5-(4-fluorophenyl)pyridin-3-yl]-methyl)methanamine]
- LID ([6]; phase 2A study and open labeled study): reduced LID
- effects compared to placebo ([6]; several large phase 2b studies): no significant effects

SMILES: O=C1[C@H]2CCCC[C@H]2C(=O)N1CCCCN1CCN(c2nsc3ccccc23)CC1 [perospirone, (3 aR,7aS)-2-{4-[4-(1,2-benzisothiazol-3-yl)piperazin-1-yl]butyl}hexahydro-1H-isoindole-1,3(2H)-dione]
- involuntary movement [7]: could reduce involuntary movement
